This is an account of results in ChEMBL document CHEMBL5291721, “A preclinical secondary pharmacology resource illuminates target-adverse drug reaction associations of marketed drugs” (Nat Commun, 2023).

What is called AC50 is the concentration giving half of the maximal activity seen.

Some targets named below: Melanocortin receptor 3 (Homo sapiens, UniProt P41968); Mu-type opioid receptor (Homo sapiens, UniProt P35372); Adenosine receptor A2a (Homo sapiens, UniProt P29274); Vasopressin V2 receptor (Homo sapiens, UniProt P30518); D(3) dopamine receptor (Homo sapiens, UniProt P35462).
A further assay concerns the target Histamine H2 receptor (Homo sapiens, UniProt P25021). Format: functional, cell-based.
In assay [1] the target is Sodium-dependent noradrenaline transporter (Homo sapiens, UniProt P23975).
Sodium-dependent noradrenaline transporter, sequence (P23975 whole entry): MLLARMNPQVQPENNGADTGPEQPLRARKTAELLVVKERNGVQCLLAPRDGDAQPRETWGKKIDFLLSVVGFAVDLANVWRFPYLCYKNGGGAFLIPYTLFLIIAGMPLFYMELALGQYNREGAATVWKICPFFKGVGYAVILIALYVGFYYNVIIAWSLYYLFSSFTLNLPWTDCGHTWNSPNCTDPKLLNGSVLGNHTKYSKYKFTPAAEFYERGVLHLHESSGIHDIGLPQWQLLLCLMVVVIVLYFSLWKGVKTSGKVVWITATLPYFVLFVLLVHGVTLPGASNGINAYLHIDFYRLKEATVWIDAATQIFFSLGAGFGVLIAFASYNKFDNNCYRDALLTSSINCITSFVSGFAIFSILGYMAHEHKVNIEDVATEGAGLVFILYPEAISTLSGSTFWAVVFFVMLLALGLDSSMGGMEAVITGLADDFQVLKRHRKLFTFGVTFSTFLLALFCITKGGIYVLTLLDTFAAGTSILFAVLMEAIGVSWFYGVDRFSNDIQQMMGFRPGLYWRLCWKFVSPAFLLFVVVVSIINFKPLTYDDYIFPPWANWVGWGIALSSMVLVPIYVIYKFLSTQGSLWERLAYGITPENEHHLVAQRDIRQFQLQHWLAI
The target of assay [2] is Voltage-dependent L-type calcium channel subunit alpha-1C (Rattus norvegicus, UniProt P22002). The format is functional.
Voltage-dependent L-type calcium channel subunit alpha-1C, sequence (P22002 whole entry): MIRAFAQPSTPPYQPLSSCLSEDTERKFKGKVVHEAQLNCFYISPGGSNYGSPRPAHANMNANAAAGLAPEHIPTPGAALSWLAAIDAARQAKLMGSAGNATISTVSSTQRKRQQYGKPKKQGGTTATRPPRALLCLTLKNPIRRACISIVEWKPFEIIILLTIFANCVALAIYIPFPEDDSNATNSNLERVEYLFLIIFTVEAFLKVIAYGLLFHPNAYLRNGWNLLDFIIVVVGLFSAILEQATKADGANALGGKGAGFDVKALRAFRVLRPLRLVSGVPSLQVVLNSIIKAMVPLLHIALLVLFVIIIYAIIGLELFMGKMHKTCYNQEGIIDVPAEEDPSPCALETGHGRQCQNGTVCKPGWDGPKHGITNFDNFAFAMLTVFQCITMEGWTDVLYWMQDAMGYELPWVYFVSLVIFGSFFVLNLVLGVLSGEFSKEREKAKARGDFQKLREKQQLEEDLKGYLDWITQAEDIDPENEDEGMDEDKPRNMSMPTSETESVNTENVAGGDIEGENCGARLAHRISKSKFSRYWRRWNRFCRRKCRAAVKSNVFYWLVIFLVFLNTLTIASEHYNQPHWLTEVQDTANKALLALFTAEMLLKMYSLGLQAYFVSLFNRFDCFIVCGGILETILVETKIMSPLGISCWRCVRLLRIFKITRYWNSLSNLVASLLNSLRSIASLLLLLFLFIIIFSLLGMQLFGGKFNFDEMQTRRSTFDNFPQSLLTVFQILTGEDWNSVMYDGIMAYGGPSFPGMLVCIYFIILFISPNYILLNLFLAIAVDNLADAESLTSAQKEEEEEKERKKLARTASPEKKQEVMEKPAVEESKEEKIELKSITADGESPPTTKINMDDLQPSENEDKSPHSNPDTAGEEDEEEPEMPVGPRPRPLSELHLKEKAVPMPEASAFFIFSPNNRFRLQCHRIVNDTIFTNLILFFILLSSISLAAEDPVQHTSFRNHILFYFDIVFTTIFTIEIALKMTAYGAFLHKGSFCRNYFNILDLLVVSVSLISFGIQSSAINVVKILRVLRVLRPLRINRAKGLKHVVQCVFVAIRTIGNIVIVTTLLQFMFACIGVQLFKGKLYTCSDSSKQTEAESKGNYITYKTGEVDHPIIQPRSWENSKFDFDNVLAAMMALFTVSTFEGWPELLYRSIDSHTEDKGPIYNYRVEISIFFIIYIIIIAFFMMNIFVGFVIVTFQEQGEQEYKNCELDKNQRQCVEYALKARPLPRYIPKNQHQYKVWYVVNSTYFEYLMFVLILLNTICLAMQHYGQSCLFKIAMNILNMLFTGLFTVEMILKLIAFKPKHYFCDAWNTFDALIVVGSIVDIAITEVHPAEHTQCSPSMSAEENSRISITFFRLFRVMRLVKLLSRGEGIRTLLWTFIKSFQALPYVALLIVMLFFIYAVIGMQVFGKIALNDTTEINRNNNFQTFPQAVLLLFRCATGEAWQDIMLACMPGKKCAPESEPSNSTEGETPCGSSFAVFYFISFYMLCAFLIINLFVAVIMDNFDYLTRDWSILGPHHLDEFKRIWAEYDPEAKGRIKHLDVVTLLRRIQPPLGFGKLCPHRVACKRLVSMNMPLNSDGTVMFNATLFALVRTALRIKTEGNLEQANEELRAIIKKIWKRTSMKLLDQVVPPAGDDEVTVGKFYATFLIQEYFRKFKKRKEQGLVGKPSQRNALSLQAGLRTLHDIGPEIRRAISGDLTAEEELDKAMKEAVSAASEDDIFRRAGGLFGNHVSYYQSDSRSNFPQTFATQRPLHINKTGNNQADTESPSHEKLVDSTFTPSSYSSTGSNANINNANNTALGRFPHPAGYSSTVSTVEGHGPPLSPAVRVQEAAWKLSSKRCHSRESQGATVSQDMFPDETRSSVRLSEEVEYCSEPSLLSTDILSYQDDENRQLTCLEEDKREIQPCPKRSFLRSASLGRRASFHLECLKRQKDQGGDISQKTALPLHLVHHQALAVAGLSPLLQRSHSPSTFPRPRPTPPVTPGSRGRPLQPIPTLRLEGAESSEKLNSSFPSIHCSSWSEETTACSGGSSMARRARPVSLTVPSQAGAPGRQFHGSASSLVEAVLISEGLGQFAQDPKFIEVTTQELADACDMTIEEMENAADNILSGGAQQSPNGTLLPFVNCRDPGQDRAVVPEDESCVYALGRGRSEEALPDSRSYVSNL
The target in assay [3] is T1, 5-hydroxytryptamine receptor 1A (Homo sapiens, UniProt P08908).
T1 sequence (P08908 whole entry): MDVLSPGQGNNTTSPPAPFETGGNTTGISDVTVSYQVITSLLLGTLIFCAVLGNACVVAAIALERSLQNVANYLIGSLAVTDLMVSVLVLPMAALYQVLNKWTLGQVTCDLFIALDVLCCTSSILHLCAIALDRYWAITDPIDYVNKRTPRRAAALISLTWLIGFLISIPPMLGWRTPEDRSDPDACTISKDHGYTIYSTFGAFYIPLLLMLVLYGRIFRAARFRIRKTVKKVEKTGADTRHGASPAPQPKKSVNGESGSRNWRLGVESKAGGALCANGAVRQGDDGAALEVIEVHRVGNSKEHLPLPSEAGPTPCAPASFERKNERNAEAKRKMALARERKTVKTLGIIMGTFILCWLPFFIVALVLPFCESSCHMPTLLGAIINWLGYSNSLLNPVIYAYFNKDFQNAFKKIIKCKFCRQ
Format: functional, cell-based.

Assay [4] deals with T2, Muscarinic acetylcholine receptor M2 (Homo sapiens, UniProt P08172).
T2 sequence (P08172 whole entry): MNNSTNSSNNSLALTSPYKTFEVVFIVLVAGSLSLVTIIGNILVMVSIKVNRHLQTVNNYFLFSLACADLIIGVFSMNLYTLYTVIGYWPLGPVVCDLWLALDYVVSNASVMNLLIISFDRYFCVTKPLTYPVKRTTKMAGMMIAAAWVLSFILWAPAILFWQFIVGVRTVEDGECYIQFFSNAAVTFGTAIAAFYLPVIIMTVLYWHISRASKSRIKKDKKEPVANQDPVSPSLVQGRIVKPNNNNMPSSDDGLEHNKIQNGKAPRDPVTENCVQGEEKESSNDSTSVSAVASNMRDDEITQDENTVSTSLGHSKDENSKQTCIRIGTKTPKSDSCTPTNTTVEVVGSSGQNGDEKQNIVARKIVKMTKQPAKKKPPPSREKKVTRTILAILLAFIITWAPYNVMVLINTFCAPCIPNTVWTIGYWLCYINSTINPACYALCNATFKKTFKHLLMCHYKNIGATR
Format: functional, cell-based.

Assay [5] deals with T3, Alpha-2A adrenergic receptor (Homo sapiens, UniProt P08913).
T3 sequence (P08913 whole entry): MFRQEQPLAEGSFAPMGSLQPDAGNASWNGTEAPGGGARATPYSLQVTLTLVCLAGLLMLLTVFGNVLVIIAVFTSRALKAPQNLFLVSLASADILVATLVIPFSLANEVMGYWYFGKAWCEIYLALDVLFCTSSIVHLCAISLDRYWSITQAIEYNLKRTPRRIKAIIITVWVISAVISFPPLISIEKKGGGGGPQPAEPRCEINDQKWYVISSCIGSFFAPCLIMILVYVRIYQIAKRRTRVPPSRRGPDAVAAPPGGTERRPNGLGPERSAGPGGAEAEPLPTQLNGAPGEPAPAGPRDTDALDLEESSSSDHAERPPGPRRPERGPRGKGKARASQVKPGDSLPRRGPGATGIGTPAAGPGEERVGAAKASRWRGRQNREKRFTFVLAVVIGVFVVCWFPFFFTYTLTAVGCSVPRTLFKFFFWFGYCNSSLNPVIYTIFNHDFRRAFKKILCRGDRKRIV
Format: functional, cell-based.

The target of the next assay is T4, Adenosine receptor A3 (Homo sapiens, UniProt P0DMS8).
T4 sequence (P0DMS8 whole entry): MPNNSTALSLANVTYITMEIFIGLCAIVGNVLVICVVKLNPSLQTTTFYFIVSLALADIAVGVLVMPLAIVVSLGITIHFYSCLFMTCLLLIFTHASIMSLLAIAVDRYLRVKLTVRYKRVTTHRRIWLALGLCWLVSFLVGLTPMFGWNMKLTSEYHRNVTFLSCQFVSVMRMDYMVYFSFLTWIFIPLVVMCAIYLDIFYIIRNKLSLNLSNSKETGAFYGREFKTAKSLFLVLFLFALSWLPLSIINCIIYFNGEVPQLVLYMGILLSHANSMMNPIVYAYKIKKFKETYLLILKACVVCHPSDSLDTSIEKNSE

For assay [6], the target named is Growth hormone secretagogue receptor type 1 (Homo sapiens, UniProt Q92847).
Growth hormone secretagogue receptor type 1, sequence (Q92847 whole entry): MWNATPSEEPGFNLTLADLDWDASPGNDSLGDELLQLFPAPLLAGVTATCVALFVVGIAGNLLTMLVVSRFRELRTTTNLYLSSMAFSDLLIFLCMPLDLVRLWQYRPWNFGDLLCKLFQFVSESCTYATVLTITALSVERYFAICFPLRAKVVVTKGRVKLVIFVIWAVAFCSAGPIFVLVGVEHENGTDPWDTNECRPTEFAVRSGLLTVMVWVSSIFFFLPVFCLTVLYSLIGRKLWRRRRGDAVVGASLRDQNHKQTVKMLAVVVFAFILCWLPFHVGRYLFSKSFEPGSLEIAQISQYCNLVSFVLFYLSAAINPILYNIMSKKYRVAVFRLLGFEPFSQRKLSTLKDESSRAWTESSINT
Further: assay procedure not described here.

Mu-type opioid receptor, sequence (P35372 whole entry): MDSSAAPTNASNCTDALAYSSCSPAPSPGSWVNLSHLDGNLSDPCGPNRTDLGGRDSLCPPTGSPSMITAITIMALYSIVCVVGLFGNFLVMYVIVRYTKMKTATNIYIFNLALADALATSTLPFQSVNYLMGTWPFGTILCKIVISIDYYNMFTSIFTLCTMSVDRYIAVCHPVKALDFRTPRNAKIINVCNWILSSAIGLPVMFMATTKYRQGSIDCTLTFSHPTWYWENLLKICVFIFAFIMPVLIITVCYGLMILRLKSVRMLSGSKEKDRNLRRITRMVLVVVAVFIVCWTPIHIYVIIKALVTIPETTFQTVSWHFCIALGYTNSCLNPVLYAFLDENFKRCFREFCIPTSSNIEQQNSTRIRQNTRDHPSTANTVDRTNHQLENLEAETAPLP
Adenosine receptor A2a, sequence (P29274 whole entry): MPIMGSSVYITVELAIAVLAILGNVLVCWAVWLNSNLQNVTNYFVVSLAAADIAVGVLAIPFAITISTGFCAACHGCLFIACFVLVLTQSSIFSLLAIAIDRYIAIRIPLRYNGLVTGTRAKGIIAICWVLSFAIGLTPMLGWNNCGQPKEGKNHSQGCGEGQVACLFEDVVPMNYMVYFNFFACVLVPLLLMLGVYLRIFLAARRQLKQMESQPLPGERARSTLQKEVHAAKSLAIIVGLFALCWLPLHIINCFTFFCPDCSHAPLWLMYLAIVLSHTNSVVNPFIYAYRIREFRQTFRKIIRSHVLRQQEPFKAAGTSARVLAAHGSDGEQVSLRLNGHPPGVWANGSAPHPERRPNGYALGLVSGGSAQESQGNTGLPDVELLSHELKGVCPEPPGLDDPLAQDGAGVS
Histamine H2 receptor, sequence (P25021 whole entry): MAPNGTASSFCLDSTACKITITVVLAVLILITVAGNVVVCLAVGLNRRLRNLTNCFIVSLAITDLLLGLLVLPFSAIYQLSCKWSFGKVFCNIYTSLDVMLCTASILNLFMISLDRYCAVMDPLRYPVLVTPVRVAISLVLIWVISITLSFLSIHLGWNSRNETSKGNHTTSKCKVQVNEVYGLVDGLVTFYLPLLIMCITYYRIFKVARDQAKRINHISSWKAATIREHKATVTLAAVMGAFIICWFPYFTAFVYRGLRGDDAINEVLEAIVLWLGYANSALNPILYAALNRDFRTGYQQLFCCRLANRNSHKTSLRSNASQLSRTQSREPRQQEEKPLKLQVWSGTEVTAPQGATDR
D(3) dopamine receptor, sequence (P35462 whole entry): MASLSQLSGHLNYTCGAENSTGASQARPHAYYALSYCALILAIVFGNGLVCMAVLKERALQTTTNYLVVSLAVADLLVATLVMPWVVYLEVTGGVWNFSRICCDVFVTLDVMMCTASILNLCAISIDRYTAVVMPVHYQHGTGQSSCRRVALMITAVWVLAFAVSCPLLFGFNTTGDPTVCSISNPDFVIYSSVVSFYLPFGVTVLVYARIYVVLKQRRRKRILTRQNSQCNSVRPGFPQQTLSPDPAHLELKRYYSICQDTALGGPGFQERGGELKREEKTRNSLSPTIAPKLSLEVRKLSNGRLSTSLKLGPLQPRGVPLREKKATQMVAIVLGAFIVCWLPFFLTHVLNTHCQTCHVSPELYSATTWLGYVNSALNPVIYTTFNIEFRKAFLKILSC
Melanocortin receptor 3, sequence (P41968 whole entry): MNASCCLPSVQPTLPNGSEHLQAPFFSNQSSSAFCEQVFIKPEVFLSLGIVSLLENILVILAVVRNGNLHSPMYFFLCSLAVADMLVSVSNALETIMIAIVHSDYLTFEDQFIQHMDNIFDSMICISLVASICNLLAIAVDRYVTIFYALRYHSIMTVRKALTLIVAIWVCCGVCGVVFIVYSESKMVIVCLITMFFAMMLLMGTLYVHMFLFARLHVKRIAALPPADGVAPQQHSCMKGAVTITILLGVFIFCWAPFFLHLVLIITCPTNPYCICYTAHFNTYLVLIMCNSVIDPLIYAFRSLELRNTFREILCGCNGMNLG

In the case of `COc1ccccc1Oc1c(NS(=O)(=O)c2ccc(C(C)(C)C)cc2)nc(-c2ncccn2)nc1OCCO` [BOSENTAN], the AC50 on Melanocortin receptor 3 is over 30 µM; at Histamine H2 receptor, over 10 µM; in [1] it was over 30 µM; in [2], over 10 µM; on Mu-type opioid receptor, over 30 µM; at Adenosine receptor A2a, over 30 µM. The AC50 was over 10 µM in assay [3]; over 10 µM in [4]; over 10 µM in [5]; over 30 µM at Adenosine receptor A3; over 30 µM on Vasopressin V2 receptor; over 30 µM on D(3) dopamine receptor. The AC50 in assay [6] is over 30 µM.
On to `CC(C(=O)O)c1ccc2c(c1)[nH]c1ccc(Cl)cc12` (configuration not stated) [CARPROFEN], for which the AC50 is over 30 µM on Melanocortin receptor 3; over 10 µM at Histamine H2 receptor; over 30 µM in [1]; over 10 µM in assay [2]; over 30 µM at Mu-type opioid receptor; over 30 µM at Adenosine receptor A2a. The AC50 was over 10 µM in [3]; over 10 µM in assay [4]; over 10 µM in [5]; over 30 µM on Adenosine receptor A3; over 30 µM on Vasopressin V2 receptor; over 30 µM on D(3) dopamine receptor. The compound further had an AC50 in [6] of over 30 µM.
On to `COc1ccccc1OCCNCC(O)COc1cccc2[nH]c3ccccc3c12` (configuration not stated) [CARVEDILOL], for which the AC50 on Melanocortin receptor 3 is 28.8 µM; at Histamine H2 receptor, over 10 µM; in assay [1], 3.99 µM; in assay [2], over 10 µM; on Mu-type opioid receptor, 1.7 µM; at Adenosine receptor A2a, over 30 µM. Moreover, the AC50 in assay [3] is 0.04 µM; in assay [4] it was over 10 µM; in [5] it was over 30 µM; at Adenosine receptor A3, 18.6 µM; at Vasopressin V2 receptor, over 30 µM; at D(3) dopamine receptor it was 0.47 µM. In assay [6], this compound showed an AC50 of 14.1 µM.
With `O=C1CCc2cc(OCCCCc3nnnn3C3CCCCC3)ccc2N1` [CILOSTAZOL], the AC50 (at Melanocortin receptor 3; at Histamine H2 receptor; in assay [1]; in assay [2]; at Mu-type opioid receptor; on Adenosine receptor A2a) was over 30 µM in each case. The concentration at half-maximal activity (AC50) in assay [3] is over 30 µM; in [4], over 30 µM; in [5], over 30 µM; on Adenosine receptor A3, 18.2 µM; at Vasopressin V2 receptor, over 30 µM; at D(3) dopamine receptor it was over 30 µM. In [6], this compound showed an AC50 of over 30 µM.
As for `O=C1CN(/N=C/c2ccc(-c3ccc([N+](=O)[O-])cc3)o2)C(O)=N1` [DANTROLENE], the AC50 was over 10 µM on Melanocortin receptor 3; over 10 µM at Histamine H2 receptor; over 10 µM in assay [1]; over 10 µM in assay [2]; over 30 µM at Mu-type opioid receptor; over 30 µM at Adenosine receptor A2a. Besides, the AC50 in assay [3] was over 10 µM; in assay [4], over 10 µM; in [5], over 10 µM; at Adenosine receptor A3 it was over 30 µM; at Vasopressin V2 receptor, over 10 µM; at D(3) dopamine receptor, over 30 µM. In assay [6], this compound showed an AC50 of over 10 µM.
`CC(C)N(CCC(C(N)=O)(c1ccccc1)c1ccccn1)C(C)C` (configuration not stated) [DISOPYRAMIDE]: the AC50 was over 30 µM at Melanocortin receptor 3; over 10 µM at Histamine H2 receptor; over 30 µM in assay [1]; over 10 µM in assay [2]; over 30 µM at Mu-type opioid receptor; over 30 µM on Adenosine receptor A2a. Further, the AC50 is over 10 µM in assay [3]; over 10 µM in [4]; over 10 µM in assay [5]; over 30 µM on Adenosine receptor A3; over 30 µM on Vasopressin V2 receptor; over 30 µM on D(3) dopamine receptor. In addition, the AC50 in [6] was over 30 µM.
As to `C[C@H]1c2cccc(O)c2C(=O)C2=C(O)[C@]3(O)C(=O)C(C(N)=O)=C(O)[C@@H](N(C)C)[C@@H]3[C@@H](O)[C@@H]21` [DOXYCYCLINE], the AC50 was over 30 µM on Melanocortin receptor 3; over 10 µM on Histamine H2 receptor; over 10 µM in assay [1]; over 10 µM in [2]; over 30 µM at Mu-type opioid receptor; over 30 µM at Adenosine receptor A2a. Also, the AC50 was over 10 µM in [3]; over 10 µM in assay [4]; over 10 µM in assay [5]; over 30 µM on Adenosine receptor A3; over 30 µM on Vasopressin V2 receptor; over 10 µM at D(3) dopamine receptor. In addition, in assay [6], the AC50 was over 30 µM.
`C[C@]12C=CC(=O)N[C@@H]1CC[C@@H]1[C@@H]2CC[C@]2(C)[C@@H](C(=O)Nc3cc(C(F)(F)F)ccc3C(F)(F)F)CC[C@@H]12` [DUTASTERIDE]: the AC50 was over 10 µM at Melanocortin receptor 3; over 10 µM at Histamine H2 receptor; over 10 µM in assay [1]; over 10 µM in assay [2]; over 30 µM on Mu-type opioid receptor; over 10 µM at Adenosine receptor A2a. Moreover, the AC50 is over 10 µM in assay [3]; over 10 µM in assay [4]; over 10 µM in assay [5]; over 10 µM at Adenosine receptor A3; over 10 µM on Vasopressin V2 receptor; over 30 µM at D(3) dopamine receptor. This compound registered an AC50 in assay [6] of over 10 µM.
On to `CO[C@H]1/C=C/O[C@@]2(C)Oc3c(C)c(O)c4c(O)c(c(/C=N/N5CCN(C)CC5)c(O)c4c3C2=O)NC(=O)/C(C)=C\C=C\[C@H](C)[C@H](O)[C@@H](C)[C@@H](O)[C@@H](C)[C@H](OC(C)=O)[C@@H]1C` [RIFAMPIN], for which the AC50 on Melanocortin receptor 3 is over 30 µM; at Histamine H2 receptor, over 30 µM; in assay [1], 20 µM; in assay [2] it was over 30 µM; on Mu-type opioid receptor, 8 µM; on Adenosine receptor A2a, 13 µM. Also, the AC50 in [3] is over 30 µM; in assay [4], over 30 µM; in [5], over 30 µM; at Adenosine receptor A3 it was 27 µM; on Vasopressin V2 receptor it was 30 µM; at D(3) dopamine receptor, 11 µM. Further, in [6], the AC50 is over 30 µM.
On to `CC(N)C12CC3CC(CC(C3)C1)C2` (configuration not stated) [RIMANTADINE], for which the AC50 at Melanocortin receptor 3 was over 10 µM; on Histamine H2 receptor, over 10 µM; in assay [1], over 10 µM; in assay [2] it was over 10 µM; on Mu-type opioid receptor, over 30 µM; at Adenosine receptor A2a, over 10 µM. For the same compound, the AC50 in assay [3] was over 10 µM; in assay [4] it was over 10 µM; in assay [5], over 10 µM; at Adenosine receptor A3 it was over 10 µM; at Vasopressin V2 receptor, over 10 µM; on D(3) dopamine receptor, over 30 µM. Further, the AC50 in assay [6] was over 10 µM.
Turning to `CN(C)CCc1c[nH]c2ccc(Cn3cncn3)cc12` [RIZATRIPTAN], the AC50 at Melanocortin receptor 3 is over 30 µM; on Histamine H2 receptor it was over 30 µM; in assay [1] it was over 10 µM; in [2] it was over 10 µM; on Mu-type opioid receptor, over 10 µM; at Adenosine receptor A2a, over 30 µM. The AC50 (in assay [4]; in [5]; on Adenosine receptor A3; on Vasopressin V2 receptor; at D(3) dopamine receptor; in assay [6]) was over 30 µM each time.
